Laboratory results: the supplement of paper PMC10307832

Experiments:
Test in all cases: relative viability (nuclei count vs DMSO), 5 days (fraction); higher = more cells survive
Halofuginone + Olaparib = compound: O=C(C[C@H]1NCCC[C@@H]1O)Cn1cnc2cc(Br)c(Cl)cc2c1=O (racemic) [Halofuginone] + O=C(c1cc(Cc2n[nH]c(=O)c3ccccc23)ccc1F)N1CCN(C(=O)C2CC2)CC1 [Olaparib] (partner 8 µM)
In short: (§1)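 Lung cancer cell lines in 1536-well plates were dosed by pin tool the day after seeding, either with one drug alone or with a fixed anchor-drug dose plus five library-drug doses (not always all listed) in √10 steps. After 5 days, cells were fixed and their nuclei stained in one step (final 0.05% Triton X-100, 1% formaldehyde, 1 ug/ml Hoechst), then counted on 4× images. Relative viability is the nuclei count in treated wells divided by that in vehicle wells. Values are medians of duplicate plates.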

Decitabine + Foretinib = compound: Nc1ncn([C@H]2C[C@H](O)[C@@H](CO)O2)c(=O)n1 [Decitabine] + COc1cc2c(Oc3ccc(NC(=O)C4(C(=O)Nc5ccc(F)cc5)CC4)cc3F)ccnc2cc1OCCCN1CCOCC1 [Foretinib] (partner 0.25 µM)
In short: as §1

[1] = compound: O=C(C[C@H]1NCCC[C@@H]1O)Cn1cnc2cc(Br)c(Cl)cc2c1=O (racemic) [Halofuginone] + CC(=O)c1c(C)c2cnc(Nc3ccc(N4CCNCC4)cn3)nc2n(C2CCCC2)c1=O [Palbociclib] (partner 0.5 µM)
In short: as §1

[2] = compound: O=C(C[C@H]1NCCC[C@@H]1O)Cn1cnc2cc(Br)c(Cl)cc2c1=O (racemic) [Halofuginone] + C[C@@H](Oc1cc(-c2cnn(C3CCNCC3)c2)cnc1N)c1c(Cl)ccc(F)c1Cl [Crizotinib] (partner 1 µM)
In short: as §1

Cell Line	relative viability (Halofuginone + Olaparib; first compound 0.001 µM)	relative viability (Halofuginone + Olaparib; first compound 0.003162 µM)	relative viability (Halofuginone + Olaparib; first compound 0.01 µM)	relative viability (Halofuginone + Olaparib; first compound 0.03162 µM)	relative viability (Halofuginone + Olaparib; first compound 0.1 µM)	relative viability (Decitabine + Foretinib; first compound 0.04 µM)	relative viability (Decitabine + Foretinib; first compound 0.1265 µM)	relative viability (Decitabine + Foretinib; first compound 0.4 µM)	relative viability (Decitabine + Foretinib; first compound 1.265 µM)	relative viability (Decitabine + Foretinib; first compound 4 µM)	relative viability ([1]; first compound 0.001 µM)	relative viability ([1]; first compound 0.003162 µM)	relative viability ([1]; first compound 0.01 µM)	relative viability ([1]; first compound 0.03162 µM)	relative viability ([1]; first compound 0.1 µM)	relative viability ([2]; first compound 0.001 µM)	relative viability ([2]; first compound 0.003162 µM)	relative viability ([2]; first compound 0.01 µM)	relative viability ([2]; first compound 0.03162 µM)	relative viability ([2]; first compound 0.1 µM)
COR-L23	0.349	0.348	0.346	0.292	0.171	0.597	0.605	0.473	0.353	0.246	0.328	0.303	0.344	0.292	0.139	0.822	0.78	0.624	0.62	0.0779
RERF-LC-KJ	1.19	0.983	0.884	0.959	0.632	0.877	0.84	0.741	0.689	0.635	1.18	0.973	1.12	1.03	0.811	0.888	0.791	0.807	0.818	0.823
NCI-H1755	0.853	0.941	0.881	0.833	0.723	0.889	0.886	0.804	0.565	0.447	0.436	0.479	0.421	0.491	0.418	0.916	0.884	0.806	0.869	0.348
PC-14	0.383	0.333	0.406	0.218	0.0499		0.744	0.411	0.313	0.282	0.509	0.597	0.514	0.17	0.0426	1	0.826	0.727	0.722	0.183
NCI-H322M	0.821	0.535	0.781	0.624	0.5	0.818	0.872	0.669	0.485	0.473	0.549	0.475	0.45	0.465	0.357	0.982	0.911	0.906	1.01	0.77
NCI-H1666	0.758	0.785	0.714	0.789	0.705	0.91	0.86	0.776	0.662	0.68	0.668	0.683	0.641	0.676	0.645	1.02	1.02	0.948	0.913	0.582
A-427	0.826	0.695	0.77	0.704	0.597	0.653	0.635	0.354	0.264	0.242	0.526	0.538	0.534	0.49	0.479	0.941	0.911	0.795	0.807	0.764
NCI-H1651	0.177	0.194	0.2	0.178	0.176	0.685	0.942	0.783	0.647	0.526	0.523	0.515	0.51	0.513	0.509	0.922	0.899	0.88	0.848	0.798
NCI-H520	0.324	0.291	0.303	0.378	0.187	0.732	0.691	0.584	0.387	0.343	0.191	0.222	0.208	0.232	0.2	0.764	0.808	0.749	0.693	0.316
201T	0.851	0.906	0.853	0.827	0.83	1.18	1.35	1.02	0.744	0.727	0.369	0.185	0.381	0.367	0.351	0.966	1.02	1.04	1.05	0.964
NCI-H460	0.417	0.416	0.466	0.415	0.083	0.948	0.816	0.619	0.43	0.193	0.233	0.237	0.207	0.182	0.0284	1.05	1.06	0.866	0.409	0.0383
HARA	1.16	0.885	0.572	0.664	0.345	0.641	0.558	0.387	0.215	0.165	0.382	0.266	0.234	0.264	0.216	1.17	1.05	0.985	1.05	0.943
NCI-H2170	0.64	0.593	0.589	0.605	0.551	0.87	0.85	0.767	0.437	0.393	0.382	0.392	0.358	0.401	0.373	1.27	1.34	1.21	1.21	1
NCI-H2126	0.893	0.863	0.882	0.901	0.916	1.05	0.929	0.607	0.583	0.466	0.362	0.344	0.347	0.346	0.354	1.02	1.03	0.998	1.02	0.987
HCC-827	0.673	0.588	0.667	0.631	0.599	0.351	0.383	0.333	0.3	0.279	0.485	0.459	0.491	0.56	0.478	0.913	0.893	0.895	0.973	0.798
ABC-1	1.06	0.793	0.617	0.847	1.09	0.979	0.912	0.763	0.839	0.67	0.551	0.606	0.739	0.475	0.61	1.09	1.08	0.954	1.26	1.15
